In patent publication US20120046306A1, “Substituted Heteroaryl Spiropyrrolidine MDM2 Antagonists” (priority 2010, published 2012) one finds IC50 data, which are given here for seven compounds.

In this assay the target is interaction between p53 and MDM2 proteins (Homo sapiens, UniProt Q00987). Description: HTRF assay of inhibition of p53-MDM2 interaction. Format: binding. The conditions noted are these: GST-MDM2 and biotinylated p53 peptide, bsa: 0.02%. On the procedure: The ability of the compounds to inhibit the interaction between p53 and MDM2 proteins was measured by an HTRF (homogeneous time-resolved fluorescence) assay in which recombinant GST-tagged MDM2 binds to a peptide that resembles the MDM2-interacting region of p53. Binding of GST-MDM2 protein and p53-peptide (biotinylated on its N-terminal end) is registered by the FRET (fluorescence resonance energy transfer) between Europium (Eu)-labeled anti-GST antibody and streptavidin-conjugated Allophycocyanin (APC).
Chain of interaction between p53 and MDM2 proteins (Q00987 whole entry): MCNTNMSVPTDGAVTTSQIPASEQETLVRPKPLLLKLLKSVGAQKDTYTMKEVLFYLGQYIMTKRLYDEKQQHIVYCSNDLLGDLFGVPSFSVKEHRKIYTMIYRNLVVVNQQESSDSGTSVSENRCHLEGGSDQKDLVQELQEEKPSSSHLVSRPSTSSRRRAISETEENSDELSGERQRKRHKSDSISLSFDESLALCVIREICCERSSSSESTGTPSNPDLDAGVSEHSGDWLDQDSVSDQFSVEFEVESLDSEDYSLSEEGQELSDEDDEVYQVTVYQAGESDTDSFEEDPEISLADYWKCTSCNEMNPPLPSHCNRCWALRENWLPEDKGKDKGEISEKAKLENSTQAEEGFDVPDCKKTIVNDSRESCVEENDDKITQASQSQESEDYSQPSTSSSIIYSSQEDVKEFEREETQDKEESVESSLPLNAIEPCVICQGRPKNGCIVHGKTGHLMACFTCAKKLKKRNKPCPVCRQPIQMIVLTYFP
Add 20 uL streptavidin-APC and Eu-anti-GST antibody mixture (6 nM Eu-anti-GST and 60 nM streptavidin-APC working solution) in TBS buffer with 0.2% BSA, shake at room temperature for 30 minutes and read using a TRF-capable plate reader at
If not specified, the reagents were purchased from Sigma Chemical Co.
Consider `COC(=O)c1ccc(NC(=O)[C@@H]2N[C@@H](CC(C)(C)C)[C@]3(C(=O)Nc4nc(Cl)ncc43)[C@H]2c2cccc(Cl)c2F)c(OC)c1` (racemic) [Example 91, methyl rac-4-{(2S,3S,4S,5R)-2′-chloro-4-(3-chloro-2-fluorophenyl)-2-neopentyl-6′-oxo-6′,7′-dihydrospiro[pyrrolidine-3,5′-pyrrolo[2,3-d]pyrimidine]-5-ylcarboxamido}-3-methoxybenzoate], for which the IC50 is 10.7 nM. This lies in the double-digit nanomolar range. In the case of `COC(=O)c1ccc(NC(=O)[C@@H]2N[C@@H](CC(C)(C)C)[C@@]3(C(=O)Nc4c(Cl)ccnc43)[C@H]2c2cccc(Cl)c2F)c(OC)c1` (racemic) [Example 123, methyl rac-4-((2S,3S,4S,5R)-7′-chloro-4-(3-chloro-2-fluorophenyl)-2-neopentyl-2′-oxo-1′,2′-dihydrospiro[pyrrolidine-3,3′-pyrrolo[3,2-b]pyridine]-5-ylcarboxamido)-3-methoxybenzoate] it was 6250 nM; in that of `COC(=O)c1ccc(NC(=O)[C@@H]2N[C@@H](CC(C)(C)C)[C@@]3(C(=O)Nc4ncccc43)[C@H]2c2cccc(Cl)c2F)c(OC)c1` (racemic) [Example 13, methyl rac-4-((2S,3R,4S,5R)-4-(3-chloro-2-fluorophenyl)-2-neopentyl-2′-oxo-1′,2′-dihydrospiro[pyrrolidine-3,3′-pyrrolo[2,3-b]pyridine]-5-ylcarboxamido)-3-methoxybenzoate], 30.3 nM; in that of `COc1cc(C(N)=O)ccc1NC(=O)[C@@H]1N[C@@H](CC(C)(C)C)[C@@]2(C(=O)Nc3cc(F)cnc32)[C@H]1c1cccc(Cl)c1F` (racemic) [Example 86, rac-(2S,3S,4S,5R)-N-(4-carbamoyl-2-methoxyphenyl)-4-(3-chloro-2-fluorophenyl)-6′-fluoro-2-neopentyl-2′-oxo-1′,2′-dihydrospiro[pyrrolidine-3,3′-pyrrolo[3,2b]pyridine]-5-carboxamide], 18.7 nM. With `COc1cc(C(=O)O)ccc1NC(=O)[C@@H]1N[C@@H](CC(C)(C)C)[C@@]2(C(=O)Nc3ccc(Cl)nc32)[C@H]1c1cccc(Cl)c1F` (racemic) [Example 47, rac-4-((2S,3S,4S,5R)-5′-chloro-4-(3-chloro-2-fluorophenyl)-2-neopentyl-2′-oxo-1′,2′-dihydrospiro[pyrrolidine-3,3′-pyrrolo[3,2-b]pyridine]-5-ylcarboxamido)-3-methoxybenzoic acid], the 50% inhibitory concentration (IC50) stood at 34.5 nM. In the case of `CC(C)(C)C[C@@H]1N[C@@H](C(=O)Nc2ccc(C(=O)O)cc2)[C@H](c2cccc(Cl)c2F)[C@]12C(=O)Nc1cc(Cl)ncc12` (racemic) [Example 28, rac-4-((2S,3R,4S,5R)-6′-chloro-4-(3-chloro-2-fluorophenyl)-2-neopentyl-2′-oxo-1′,2′-dihydrospiro[pyrrolidine-3,3′-pyrrolo[3,2-c]pyridine]-5-ylcarboxamido)benzoic acid] it was 10.5 nM. Compound `COc1cc2c(cn1)[C@@]1(C(=O)N2)[C@H](CC(C)(C)C)N[C@@H](C(=O)Nc2ccc(C(N)=O)cc2OC)[C@@H]1c1cccc(Cl)c1F` (racemic) [Example 115, rac-(2S,3R,4S,5R)-N-(4-carbamoyl-2-methoxyphenyl)-4-(3-chloro-2-fluorophenyl)-6′-methoxy-2-neopentyl-2′-oxo-1′,2′-dihydrospiro[pyrrolidine-3,3′-pyrrolo[3,2-c]pyridine]-5-carboxamide] had a half-inhibitory concentration (IC50) of 127 nM.
